Assay results from PubChem BioAssay (NCI).
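Compound exposure: 48 hours, 5 concentrations, 96-well plates. TGI denotes the concentration required for complete inhibition of growth.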

What was measured:
Assay in all cases: NCI-60 cell line screen, 48 h
786-0 renal = tested on: 786-0 renal
A498 renal = tested on: A498 renal
A549 NSCLC = tested on: A549 NSCLC
ACHN renal = tested on: ACHN renal
BT-549 breast = tested on: BT-549 breast
CAKI-1 renal = tested on: CAKI-1 renal
CCRF-CEM leukemia = tested on: CCRF-CEM leukemia
COLO 205 colon = tested on: COLO 205 colon
DLD-1 colon = tested on: DLD-1 colon
DMS 114 small cell lung = tested on: DMS 114 small cell lung
DMS 273 small cell lung = tested on: DMS 273 small cell lung
DU-145 prostate = tested on: DU-145 prostate
EKVX NSCLC = tested on: EKVX NSCLC
HCC-2998 colon = tested on: HCC-2998 colon
HCT-116 colon = tested on: HCT-116 colon
HCT-15 colon = tested on: HCT-15 colon
HOP-62 NSCLC = tested on: HOP-62 NSCLC
HOP-92 NSCLC = tested on: HOP-92 NSCLC
HS 578T breast = tested on: HS 578T breast
HT29 colon = tested on: HT29 colon
IGROV1 ovarian = tested on: IGROV1 ovarian
K-562 leukemia = tested on: K-562 leukemia
KM12 colon = tested on: KM12 colon
KM20L2 colon = tested on: KM20L2 colon
LOX IMVI melanoma = tested on: LOX IMVI melanoma
LXFL 529 NSCLC = tested on: LXFL 529 NSCLC
M14 melanoma = tested on: M14 melanoma
M19-MEL melanoma = tested on: M19-MEL melanoma
MALME-3M melanoma = tested on: MALME-3M melanoma
MCF7 breast = tested on: MCF7 breast
MDA-MB-231 breast = tested on: MDA-MB-231 breast
MDA-MB-435 = tested on: MDA-MB-435
MDA-N = tested on: MDA-N
MOLT-4 leukemia = tested on: MOLT-4 leukemia
NCI-H226 lung = tested on: NCI-H226 lung
NCI-H23 lung = tested on: NCI-H23 lung
NCI-H460 lung = tested on: NCI-H460 lung
NCI-H522 lung = tested on: NCI-H522 lung
NCI/ADR-RES ovarian = tested on: NCI/ADR-RES ovarian
OVCAR-3 ovarian = tested on: OVCAR-3 ovarian
OVCAR-4 ovarian = tested on: OVCAR-4 ovarian
OVCAR-5 ovarian = tested on: OVCAR-5 ovarian
OVCAR-8 ovarian = tested on: OVCAR-8 ovarian
PC-3 prostate = tested on: PC-3 prostate
RPMI-8226 leukemia = tested on: RPMI-8226 leukemia
RXF 393 renal = tested on: RXF 393 renal
SF-268 CNS = tested on: SF-268 CNS
SF-295 CNS = tested on: SF-295 CNS
SF-539 CNS = tested on: SF-539 CNS
SK-MEL-2 melanoma = tested on: SK-MEL-2 melanoma
SK-MEL-28 melanoma = tested on: SK-MEL-28 melanoma
SK-MEL-5 melanoma = tested on: SK-MEL-5 melanoma
SK-OV-3 ovarian = tested on: SK-OV-3 ovarian
SN12C renal = tested on: SN12C renal
SNB-19 CNS = tested on: SNB-19 CNS
SNB-75 CNS = tested on: SNB-75 CNS
SNB-78 CNS = tested on: SNB-78 CNS
SR leukemia = tested on: SR leukemia
SW-620 colon = tested on: SW-620 colon
T-47D breast = tested on: T-47D breast
TK-10 renal = tested on: TK-10 renal
U251 CNS = tested on: U251 CNS
UACC-257 melanoma = tested on: UACC-257 melanoma
UACC-62 melanoma = tested on: UACC-62 melanoma
UO-31 renal = tested on: UO-31 renal
XF 498 CNS = tested on: XF 498 CNS
HL-60(TB) leukemia = tested on: HL-60(TB) leukemia
HOP-18 NSCLC = tested on: HOP-18 NSCLC

COc1ccc2nccc(NCCCN3CCN(CCCNc4ccnc5ccc(OC)cc45)CC3)c2c1
TGI (786-0 renal): 8.99 µM
TGI (A498 renal): 13.5 µM
TGI (A549 NSCLC): 6.55 µM
TGI (ACHN renal): 11.4 µM
TGI (BT-549 breast): 11.6 µM
TGI (CAKI-1 renal): 15 µM
TGI (CCRF-CEM leukemia): > 100 µM
TGI (COLO 205 colon): 1.24 µM
TGI (DLD-1 colon): 5.12 µM
TGI (DMS 114 small cell lung): 1.91 µM
TGI (DMS 273 small cell lung): 1.67 µM
TGI (DU-145 prostate): 4.86 µM
TGI (EKVX NSCLC): 7.93 µM
TGI (HCC-2998 colon): 2.13 µM
TGI (HCT-116 colon): 2.54 µM
TGI (HCT-15 colon): 32.4 µM
TGI (HOP-62 NSCLC): 4.4 µM
TGI (HOP-92 NSCLC): 2.35 µM
TGI (HS 578T breast): 3.27 µM
TGI (HT29 colon): 1.67 µM
TGI (IGROV1 ovarian): 3.69 µM
TGI (K-562 leukemia): 0.526 µM
TGI (KM12 colon): 1.79 µM
TGI (KM20L2 colon): 3.37 µM
TGI (LOX IMVI melanoma): 1.49 µM
TGI (LXFL 529 NSCLC): 1.82 µM
TGI (M14 melanoma): 3.19 µM
TGI (M19-MEL melanoma): 1.97 µM
TGI (MALME-3M melanoma): 1.88 µM
TGI (MCF7 breast): 1.37 µM
TGI (MDA-MB-231 breast): 4 µM
TGI (MDA-MB-435): 1.65 µM
TGI (MDA-N): 1.52 µM
TGI (MOLT-4 leukemia): 1.16 µM
TGI (NCI-H226 lung): 1.37 µM
TGI (NCI-H23 lung): 2.12 µM
TGI (NCI-H460 lung): 1.77 µM
TGI (NCI-H522 lung): 0.633 µM
TGI (NCI/ADR-RES ovarian): > 100 µM
TGI (OVCAR-3 ovarian): 7.73 µM
TGI (OVCAR-4 ovarian): 2.55 µM
TGI (OVCAR-5 ovarian): 4.74 µM
TGI (OVCAR-8 ovarian): 2.85 µM
TGI (PC-3 prostate): 4.15 µM
TGI (RPMI-8226 leukemia): 1.46 µM
TGI (RXF 393 renal): 3.69 µM
TGI (SF-268 CNS): 1.79 µM
TGI (SF-295 CNS): 5.16 µM
TGI (SF-539 CNS): 0.681 µM
TGI (SK-MEL-2 melanoma): 7.99 µM
TGI (SK-MEL-28 melanoma): 2.92 µM
TGI (SK-MEL-5 melanoma): 2.85 µM
TGI (SK-OV-3 ovarian): 6.82 µM
TGI (SN12C renal): 1.45 µM
TGI (SNB-19 CNS): 5.98 µM
TGI (SNB-75 CNS): 1.89 µM
TGI (SNB-78 CNS): 3.47 µM
TGI (SR leukemia): > 26.2 µM
TGI (SW-620 colon): 1.04 µM
TGI (T-47D breast): 4.65 µM
TGI (TK-10 renal): 22 µM
TGI (U251 CNS): 1.51 µM
TGI (UACC-257 melanoma): 2.62 µM
TGI (UACC-62 melanoma): 2.08 µM
TGI (UO-31 renal): 25.8 µM
TGI (XF 498 CNS): 1.56 µM

O=C(O)CSc1ccc2[nH]c3ccccc3c(=O)c2c1
TGI (786-0 renal): > 100 µM
TGI (A498 renal): > 100 µM
TGI (A549 NSCLC): > 100 µM
TGI (ACHN renal): > 100 µM
TGI (CAKI-1 renal): > 100 µM
TGI (CCRF-CEM leukemia): > 100 µM
TGI (COLO 205 colon): > 100 µM
TGI (DLD-1 colon): > 100 µM
TGI (DMS 114 small cell lung): > 100 µM
TGI (DMS 273 small cell lung): > 100 µM
TGI (HCC-2998 colon): > 100 µM
TGI (HCT-116 colon): > 100 µM
TGI (HCT-15 colon): > 100 µM
TGI (HL-60(TB) leukemia): > 100 µM
TGI (HOP-18 NSCLC): > 100 µM
TGI (HOP-62 NSCLC): > 100 µM
TGI (HOP-92 NSCLC): > 100 µM
TGI (HT29 colon): > 100 µM
TGI (IGROV1 ovarian): > 100 µM
TGI (K-562 leukemia): > 100 µM
TGI (KM20L2 colon): > 100 µM
TGI (LOX IMVI melanoma): > 100 µM
TGI (LXFL 529 NSCLC): > 100 µM
TGI (M14 melanoma): > 100 µM
TGI (M19-MEL melanoma): > 100 µM
TGI (MALME-3M melanoma): > 100 µM
TGI (MOLT-4 leukemia): > 100 µM
TGI (NCI-H226 lung): > 100 µM
TGI (NCI-H23 lung): > 100 µM
TGI (NCI-H460 lung): > 100 µM
TGI (OVCAR-3 ovarian): > 100 µM
TGI (OVCAR-4 ovarian): > 100 µM
TGI (OVCAR-5 ovarian): > 100 µM
TGI (OVCAR-8 ovarian): > 100 µM
TGI (RPMI-8226 leukemia): > 100 µM
TGI (SF-268 CNS): > 100 µM
TGI (SF-295 CNS): > 100 µM
TGI (SK-MEL-28 melanoma): > 100 µM
TGI (SK-MEL-5 melanoma): > 100 µM
TGI (SK-OV-3 ovarian): > 100 µM
TGI (SN12C renal): > 100 µM
TGI (SNB-19 CNS): > 100 µM
TGI (SR leukemia): > 100 µM
TGI (SW-620 colon): > 100 µM
TGI (TK-10 renal): > 100 µM
TGI (U251 CNS): > 100 µM
TGI (UACC-257 melanoma): > 100 µM
TGI (UACC-62 melanoma): > 100 µM
TGI (UO-31 renal): > 100 µM
